Read-outs that look alike come from different tables or passages of the source. One block for each compound: values may come before it.
Experiments:
[1] = biological target: mushroom tyrosinase (mTYR); assay: Mushroom tyrosinase inhibition assay; assay type: biochemical, Agaricus bisporus; parameters: Tyrosinase inhibition (%): dose or concentration left out as unconfirmed; settings: for IC50: mushroom tyrosinase; for IC50 / Tyrosinase inhibition (%): L-tyrosine substrate; for Tyrosinase inhibition (%): […] μM of compound
Description: The tyrosinase inhibitory activity assays on the synthesized DHIT derivatives 1a – 1 k was performed using mushroom tyrosinase (mTYR), as previously described with minor modification. […] The optical densities of dopachrome produced during incubation were measured using a microplate reader (VersaMax™, Molecular Devices, Sunnyvale, CA, USA) at 492 nm. […] All experiments were conducted in triplicate. To calculate the tyrosinase inhibitory activities, the following formula was used: % inhibition = [(1− (A/B)) × 100], where A is test sample optical density and B is the optical density of the non-treated control.
IC50 values were calculated by plotting linear regression curves of percentage inhibitions versus derivative concentrations. The negative control was obtained by adding dimethyl sulfoxide (DMSO) instead of a DHIT derivative.

[2] = biological target: mushroom tyrosinase; parameters: method as in PMID 29521165; settings: cited from earlier work

SMILES: O=c1/c(=C/c2ccc(O)c(O)c2)sc2n1CCN=2 [Compound 1c, (Z)-2-(3,4-Dihydroxybenzylidene)-5,6-dihydroimidazo[2,1-b]thiazol-3(2H)-one]
IC50 [1]: > 100 µM

SMILES: COc1ccc(/C=c2\sc3n(c2=O)CCN=3)c(OC)c1 [Compound 1 h, (Z)-2-(2,4-Dimethoxybenzylidene)-5,6-dihydroimidazo[2,1-b]thiazol-3(2H)-one]
IC50 [1]: > 100 µM

SMILES: COc1cc(/C=c2\sc3n(c2=O)CCN=3)cc(OC)c1O [Compound 1j, (Z)-2-(4-Hydroxy-3,5-dimethoxybenzylidene)-5,6-dihydroimidazo[2,1-b]thiazol-3(2H)-one]
Tyrosinase inhibition (%) [1]: 24.43 ± 1.50% | IC50 [1]: > 100 µM

SMILES: [H]/N=C1/NC(=O)C(=Cc2ccc(OC)c(O)c2)S1 [MHY773, (Z)-5-(3-hydroxy-4-methoxybenzylidene)-2-iminothiazolidin-4-one]
IC50 ([2]; diphenolase): 8.06 µM | IC50 ([2]; monophenolase): 2.87 µM

SMILES: COc1cc(/C=c2\sc3n(c2=O)CCN=3)cc(OC)c1OC [Compound 1 k, (Z)-2-(3,4,5-Trimethoxybenzylidene)-5,6-dihydroimidazo[2,1-b]thiazol-3(2H)-one]
IC50 [1]: > 100 µM

SMILES: COc1ccc(/C=c2\sc3n(c2=O)CCN=3)cc1OC [Compound 1i, (Z)-2-(3,4-Dimethoxybenzylidene)-5,6-dihydroimidazo[2,1-b]thiazol-3(2H)-one]
Tyrosinase inhibition (%) [1]: low or no mTYR inhibitory activity | IC50 [1]: > 100 µM

SMILES: COc1cc(/C=c2\sc3n(c2=O)CCN=3)ccc1O [Compound 1d, (Z)-2-(4-Hydroxy-3-methoxybenzylidene)-5,6-dihydroimidazo[2,1-b]thiazol-3(2H)-one]
Tyrosinase inhibition (%) ([1]; […] µM): 7.83 ± 2.29% | IC50 [1]: > 100 µM

Tyrosinase inhibition (%) ([1]; […] µM): 30% | Tyrosinase inhibition (%) ([1]; listed as KA, […] µM): 30.26 ± 0.55%
SMILES: O=c1cc(CO)occ1O [kojic acid, reference compound]

SMILES: CCOc1cc(/C=c2\sc3n(c2=O)CCN=3)ccc1O [Compound 1e, (Z)-2-(3-Ethoxy-4-hydroxybenzylidene)-5,6-dihydroimidazo[2,1-b]thiazol-3(2H)-one]
Tyrosinase inhibition (%) ([1]; […] µM): 3.90 ± 2.65% | IC50 [1]: > 100 µM

SMILES: COc1ccc(/C=c2\sc3n(c2=O)CCN=3)cc1 [Compound 1 g, (Z)-2-(4-Methoxybenzylidene)-5,6-dihydroimidazo[2,1-b]thiazol-3(2H)-one]
IC50 [1]: > 100 µM

SMILES: O=c1/c(=C/c2ccc(O)cc2)sc2n1CCN=2 [Compound 1a, (Z)-2-(4-Hydroxybenzylidene)-5,6-dihydroimidazo[2,1-b]thiazol-3(2H)-one]
mushroom tyrosinase inhibition compared with kojic acid [1]: inhibited mTYR more than kojic acid | IC50 [1]: 36.1 ± 3.9 µM | fold stronger tyrosinase inhibitor than kojic acid ([1]; ratio of IC50 values): 2.3 fold

— PMC8861568, “Identification of (Z)-2-benzylidene-dihydroimidazothiazolone derivatives as tyrosinase inhibitors: Anti-melanogenic effects and in silico studies” (Computational and Structural Biotechnology Journal, 2022)
